Earlier results in patent publication US9393230B2, “Pharmaceutical composition on the basis of phyto-nutrients with increased bioavailability, having anti-tumor activity, and method for producing said composition (alternatives)” (Nordic Labs Limited, priority 2012, dated 2016).

For `O=C(O[C@@H]1Cc2c(O)cc(O)cc2O[C@@H]1c1cc(O)c(O)c(O)c1)c1cc(O)c(O)c(O)c1` [epigallo-3-catechin, epigallocatechol-3-gallate], the solubility in water is listed as “water-soluble”.
